≈ marks a conversion by molar mass, not a printed value.
Assays:
[1] = Fraction unbound in rat plasma; type: ADME, cell-free
Rattus norvegicus [2] = assay: Unbound volume of distribution in Wistar Han rat at 0.5 mg/kg, iv LC-MS/MS method; type: ADME, organism-based; settings: in vivo
[3] = Kinetic solubility in FaSSIF at pH 6.5; type: physicochemical; settings: for solubility kinetic: FaSSIF, read-out: Kinetic_solubility
[4] = Lipophilicity, logD of the compound at pH 7 by HPLC method; type: physicochemical; settings: buffer
Rattus norvegicus [5] = assay: Volume of distribution in Wistar Han rat at 0.5 mg/kg, iv LC-MS/MS method; type: ADME, organism-based; settings: in vivo
[6] = Intrinsic clearance in rat liver microsomes; type: ADME; settings: read-out: CLH
[7] = biological target: T1, Glucose-dependent insulinotropic receptor (Homo sapiens) (UniProt Q8TDV5); assay: Agonist activity at human GPR119 by cAMP assay relative to control; type: functional; parameters: concentration or dose not given beside the values
T1 sequence (whole entry): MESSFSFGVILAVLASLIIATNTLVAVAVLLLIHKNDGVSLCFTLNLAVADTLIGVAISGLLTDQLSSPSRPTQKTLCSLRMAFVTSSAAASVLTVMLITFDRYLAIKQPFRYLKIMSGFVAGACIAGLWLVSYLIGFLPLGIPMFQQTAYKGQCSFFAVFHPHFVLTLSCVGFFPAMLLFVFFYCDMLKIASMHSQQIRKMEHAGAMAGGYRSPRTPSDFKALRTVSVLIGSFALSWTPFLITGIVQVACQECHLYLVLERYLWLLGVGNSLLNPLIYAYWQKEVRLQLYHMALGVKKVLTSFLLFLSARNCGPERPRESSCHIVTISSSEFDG

[8] = biological target: T2, Glucose-dependent insulinotropic receptor (Homo sapiens, UniProt Q8TDV5); assay: Agonist activity at human GPR119 expressed in CHO cells by cAMP assay; type: functional, cell-based
T2 sequence (Q8TDV5 whole entry): T1 sequence (whole entry)

Rattus norvegicus [9] = assay: (§1) Half life in Wistar Han rat at 0.5 mg/kg, iv LC-MS/MS method; type: ADME, organism-based; settings: in vivo
[10] = biological target: T3, Glucose-dependent insulinotropic receptor (Mus musculus) (UniProt Q7TQP3); assay: Agonist activity at mouse GPR119 by cAMP assay relative to control; type: functional; parameters: concentration or dose not given beside the values
T3 sequence (whole entry): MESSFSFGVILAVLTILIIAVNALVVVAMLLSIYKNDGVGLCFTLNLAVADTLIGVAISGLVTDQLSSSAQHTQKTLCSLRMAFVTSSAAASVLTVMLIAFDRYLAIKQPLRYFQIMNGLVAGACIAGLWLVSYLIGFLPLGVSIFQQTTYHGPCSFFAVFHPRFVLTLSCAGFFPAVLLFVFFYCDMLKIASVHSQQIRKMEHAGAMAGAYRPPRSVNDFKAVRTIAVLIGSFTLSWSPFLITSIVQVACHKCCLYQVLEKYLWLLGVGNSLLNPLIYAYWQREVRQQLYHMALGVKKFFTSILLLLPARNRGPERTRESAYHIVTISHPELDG

[11] = biological target: T4, Glucose-dependent insulinotropic receptor (Mus musculus, UniProt Q7TQP3); assay: Agonist activity at mouse GPR119 by cAMP assay; type: functional
T4 sequence (Q7TQP3 whole entry): T3 sequence (whole entry)

[12] = as §1; type: ADME, organism-based; settings: Wistar Han, in vivo

**Q.** With `CCS(=O)(=O)c1ccc(COC[C@@H]2C[C@@H]2C2CCN(c3nc(C(C)C)no3)CC2)c(F)c1` as the compound, how does the fraction unbound [1] read?
**A.** The fraction unbound was 0.058.

**Q.** What about the Vdu (Rattus norvegicus [2]) of the same compound?
**A.** The Vdu was 62 L/kg.

**Q.** And the solubility kinetic [3]?
**A.** The solubility kinetic was 127 µM (≈ 59.1 µg/mL).

**Q.** And the logD [4]?
**A.** Its logD is 4.

**Q.** And the Vd (Rattus norvegicus [5])?
**A.** The Vd was 4.8 L/kg.

**Q.** What about the CLint scaled [6] of the same compound?
**A.** The CLint scaled was 905 mL/min/kg.

**Q.** And the Activity [7]?
**A.** The Activity was 71%.

**Q.** What about the EC50 [8] of the same compound?
**A.** The EC50 was 0.8 nM.

**Q.** And the t1/2 (Rattus norvegicus [9])?
**A.** The t1/2 was 1.5 h.

**Q.** For `CCS(=O)(=O)c1ccc(OCC[C@@H]2C[C@@H]2C2CCN(c3nc(C(C)C)no3)CC2)c(F)c1`, which fraction unbound [1] is on record?
**A.** The fraction unbound was 0.02.

**Q.** And the Vdu (Rattus norvegicus [2])?
**A.** The Vdu was 242 L/kg.

**Q.** What about the solubility kinetic [3] of the same compound?
**A.** The solubility kinetic was 61 µM (≈ 28.4 µg/mL).

**Q.** What about the logD [4] of the same compound?
**A.** The logD was 4.2.

**Q.** What about the Vd (Rattus norvegicus [5]) of the same compound?
**A.** Its Vd is 4.8 L/kg.

**Q.** What about the CLint scaled [6] of the same compound?
**A.** The CLint scaled was 675 mL/min/kg.

**Q.** What about the Activity [7] of the same compound?
**A.** Its Activity is 69%.

**Q.** What about the EC50 [8] of the same compound?
**A.** Its EC50 is 1.7 nM.

**Q.** What about the t1/2 (Rattus norvegicus [9]) of the same compound?
**A.** Its t1/2 is 6.5 h.

**Q.** What does the source list for `CC(C)c1noc(N2CCC([C@H]3C[C@H]3COCc3ccc(-n4cnnn4)cc3F)CC2)n1`?
**A.** Activity [10]: 105%; solubility kinetic [3]: 103 µM (≈ 45.5 µg/mL); EC50 [11]: 4.8 nM; logD [4]: 3.9; Activity [7]: 129%; EC50 [8]: 1.7 nM; half-life [12]: 1.4 h

**Q.** With `CCc1cnc(N2CCC([C@H]3C[C@H]3COCc3ccc(S(C)(=O)=O)cn3)CC2)nc1` as the compound, how does the Activity [10] read?
**A.** Its Activity is 153%.

**Q.** And the solubility kinetic [3]?
**A.** The solubility kinetic was 7 µM (≈ 3.01 µg/mL).

**Q.** And the EC50 [11]?
**A.** Its EC50 is 2.5 nM.

**Q.** What about the logD [4] of the same compound?
**A.** Its logD is 3.6.

**Q.** And the Activity [7]?
**A.** The Activity was 83%.

**Q.** What about the EC50 [8] of the same compound?
**A.** Its EC50 is 1.5 nM.

**Q.** What about the half-life [12] of the same compound?
**A.** The half-life was 1.3 h.

**Q.** Which Activity [10] does the source give for `COCc1cnc(N2CCC([C@H]3C[C@H]3COCc3ccc(-n4cnnn4)c(F)c3)CC2)nc1` here?
**A.** The Activity was 75%.

**Q.** What about the solubility kinetic [3] of the same compound?
**A.** Its solubility kinetic is 133 µM (≈ 60.3 µg/mL).

**Q.** What about the EC50 [11] of the same compound?
**A.** Its EC50 is 3.8 nM.

**Q.** What about the logD [4] of the same compound?
**A.** Its logD is 3.7.

**Q.** What about the Activity [7] of the same compound?
**A.** Its Activity is 84%.

**Q.** What about the EC50 [8] of the same compound?
**A.** The EC50 was 1.1 nM.

**Q.** And the half-life [12]?
**A.** The half-life was 3 h.

**Q.** For `CCc1cnc(N2CCC([C@H]3C[C@H]3COCc3ccc(S(C)(=O)=O)c(F)c3)CC2)nc1`, which Activity [10] is on record?
**A.** Its Activity is 115%.

**Q.** And the solubility kinetic [3]?
**A.** Its solubility kinetic is 140 µM (≈ 62.7 µg/mL).

**Q.** What about the EC50 [11] of the same compound?
**A.** The EC50 was 5.5 nM.

**Q.** And the logD [4]?
**A.** Its logD is 4.3.

**Q.** And the Activity [7]?
**A.** Its Activity is 98%.

**Q.** What about the EC50 [8] of the same compound?
**A.** The EC50 was 2.5 nM.

**Q.** What about the half-life [12] of the same compound?
**A.** The half-life was 1 h.

**Q.** Which results are given for `COC(C)c1cnc(N2CCC([C@H]3C[C@H]3COCc3ccc(S(C)(=O)=O)cc3F)CC2)nc1` (stereo in doubt; 30)?
**A.** solubility kinetic [3]: 137 µM (≈ 65.4 µg/mL); EC50 [11]: 3.3 nM; logD [4]: 3.9; EC50 [8]: 4.6 nM; t1/2 (Rattus norvegicus [9]): 1 h

**Q.** Which results are given for `CC(C)c1noc(N2CCC([C@H]3C[C@H]3COCc3ccc(S(C)(=O)=O)cc3F)CC2)n1`?
**A.** Activity [10]: 76%; solubility kinetic [3]: 144 µM (≈ 65 µg/mL); EC50 [11]: 9.9 nM; logD [4]: 3.8; Activity [7]: 87%; EC50 [8]: 4.2 nM; half-life [12]: 2.2 h

**Q.** For `CS(=O)(=O)c1ccc(COC[C@@H]2C[C@@H]2C2CCN(c3ncc(F)cn3)CC2)cc1F`, which Activity [10] is on record?
**A.** Its Activity is 131%.

**Q.** What about the solubility kinetic [3] of the same compound?
**A.** The solubility kinetic was 92 µM (≈ 40.3 µg/mL).

**Q.** And the EC50 [11]?
**A.** Its EC50 is 4.5 nM.

**Q.** And the logD [4]?
**A.** The logD was 4.2.

**Q.** What about the Activity [7] of the same compound?
**A.** Its Activity is 85%.

**Q.** And the EC50 [8]?
**A.** The EC50 was 2.4 nM.

**Q.** What about the half-life [12] of the same compound?
**A.** Its half-life is 1.5 h.

**Q.** For `COC(C)c1cnc(N2CCC([C@H]3C[C@H]3COCc3ccc(S(C)(=O)=O)cc3F)CC2)nc1` (stereo in doubt; 29), which Kinetic_solubility ([3]; simulated gi fluid) is on record?
**A.** Its Kinetic_solubility is 143 µM.

**Q.** What about the EC50 [11] of the same compound?
**A.** The EC50 was 8.9 nM.

**Q.** And the EC50 [8]?
**A.** Its EC50 is 3.1 nM.

**Q.** And the half-life [12]?
**A.** Its half-life is 1.4 h.

**Q.** For `COCc1cnc(N2CCC([C@H]3C[C@H]3COCc3ccc(CC(=O)N4CCOCC4)cc3F)CC2)nc1`, which Activity [10] is on record?
**A.** Its Activity is 99%.

**Q.** What about the solubility kinetic [3] of the same compound?
**A.** The solubility kinetic was 172 µM (≈ 88.2 µg/mL).

**Q.** And the EC50 [11]?
**A.** The EC50 was 3.7 nM.

**Q.** What about the logD [4] of the same compound?
**A.** Its logD is 3.4.

**Q.** What about the Activity [7] of the same compound?
**A.** Its Activity is 104%.

**Q.** And the EC50 [8]?
**A.** The EC50 was 3.2 nM.

**Q.** And the half-life [12]?
**A.** Its half-life is 0.4 h.

From ChEMBL document CHEMBL3621146, “Design of Potent and Orally Active GPR119 Agonists for the Treatment of Type II Diabetes” (ACS Med Chem Lett, 2015)
